Measured values published in paper PMC3057289 (2011).

Molecular target: T1, TRPC5 (Homo sapiens, UniProt Q9UL62)
T1 sequence (Q9UL62 1-973): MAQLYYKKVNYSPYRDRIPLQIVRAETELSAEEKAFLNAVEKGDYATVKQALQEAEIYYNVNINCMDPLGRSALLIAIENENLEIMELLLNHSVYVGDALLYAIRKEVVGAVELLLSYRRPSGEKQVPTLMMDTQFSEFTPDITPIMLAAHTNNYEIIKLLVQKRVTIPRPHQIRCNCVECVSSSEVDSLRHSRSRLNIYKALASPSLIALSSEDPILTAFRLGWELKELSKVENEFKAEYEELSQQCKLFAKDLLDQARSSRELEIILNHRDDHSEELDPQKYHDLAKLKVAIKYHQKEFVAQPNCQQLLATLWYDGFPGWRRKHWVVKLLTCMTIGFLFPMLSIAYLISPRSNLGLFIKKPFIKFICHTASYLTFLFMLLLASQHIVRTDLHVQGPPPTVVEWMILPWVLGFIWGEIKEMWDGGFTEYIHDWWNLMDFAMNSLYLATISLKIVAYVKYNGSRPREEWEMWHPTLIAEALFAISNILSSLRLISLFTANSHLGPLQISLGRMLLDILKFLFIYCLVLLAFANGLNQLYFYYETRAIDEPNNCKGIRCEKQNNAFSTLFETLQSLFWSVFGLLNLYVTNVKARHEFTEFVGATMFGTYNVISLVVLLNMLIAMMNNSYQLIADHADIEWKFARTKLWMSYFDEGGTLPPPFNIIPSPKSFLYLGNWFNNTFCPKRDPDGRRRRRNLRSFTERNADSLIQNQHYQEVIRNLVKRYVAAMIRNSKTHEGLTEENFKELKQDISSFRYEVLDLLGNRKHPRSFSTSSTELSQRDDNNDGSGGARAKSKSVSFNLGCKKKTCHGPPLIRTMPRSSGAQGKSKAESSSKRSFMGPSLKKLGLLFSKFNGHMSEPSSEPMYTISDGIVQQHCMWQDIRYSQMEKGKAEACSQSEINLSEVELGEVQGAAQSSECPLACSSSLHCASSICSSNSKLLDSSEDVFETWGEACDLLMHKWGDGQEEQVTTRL
Assay type: cell-based

**Q.** CC(=O)[C@H]1CC[C@H]2[C@@H]3CCC4=CC(=O)CC[C@]4(C)[C@H]3CC[C@]12C [prog, progesterone] was tested. Which IC50 did it give?
**A.** 5 µM
